PubChem BioAssay AID248 (DTP/NCI, 2004)
“And” between values parts separate entries of the source, which are not always exact repeats. Equal entries are not always repeated. Inconclusive results and toxic doses are left out. Rule as the data show it: active = T/C of 150% or more; inactive = T/C below 125%.

Tested on: L1210 leukemia ip in BDF1 mice, survival T/C
Assay: NCI In Vivo Anticancer Drug Screen. Data for tumor model L1210 Leukemia (intraperitoneal) in B6D2F1 (BDF1) mice
Conditions: endpoint: mean survival time, higher = longer survival
Method in brief: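 Each compound was tested against a transplantable tumor grown in mice. The endpoint was survival, with treated animals benchmarked against vehicle controls as a simple ratio.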

[1] = dose: 100.0 mg/kg/injection, schedule: Q04DX003 (ip), vehicle: saline with Tween-80
[2] = dose: 200.0 mg/kg/injection, schedule: Q04DX003 (ip), vehicle: saline with Tween-80
[3] = dose: 100.0 mg/kg/injection, schedule: Q01DX001 (ip), vehicle: saline
[4] = dose: 100.0 mg/kg/injection, schedule: Q04DX003 (ip), vehicle: saline
[5] = dose: 200.0 mg/kg/injection, schedule: Q01DX001 (ip), vehicle: saline
[6] = dose: 200.0 mg/kg/injection, schedule: Q04DX003 (ip), vehicle: saline
[7] = dose: 400.0 mg/kg/injection, schedule: Q01DX001 (ip), vehicle: saline
[8] = dose: 400.0 mg/kg/injection, schedule: Q04DX003 (ip), vehicle: saline
[9] = dose: 100.0 mg/kg/injection, schedule: Q04DX003 (ip), vehicle: Klucel (hydroxypropylcellulose) (HPC)
[10] = dose: 200.0 mg/kg/injection, schedule: Q04DX003 (ip), vehicle: Klucel (hydroxypropylcellulose) (HPC)
[11] = dose: 400.0 mg/kg/injection, schedule: Q04DX003 (ip), vehicle: Klucel (hydroxypropylcellulose) (HPC)

Measured: T/C

CCSc1nc(C)cc(Cl)n1
inactive: [1] 100 % of control | [2] 93 % of control

CN(CCOS(=O)(=O)O)CCOS(=O)(=O)O
inactive: dose: 37.5 mg/kg/injection, schedule: Q01DX009 (ip), vehicle: saline 98 % of control | dose: 75.0 mg/kg/injection, schedule: Q01DX009 (ip), vehicle: saline 98 % of control | dose: 75.0 mg/kg/injection, schedule: Q04DX003 (ip), vehicle: saline 102 % of control | dose: 150.0 mg/kg/injection, schedule: Q01DX009 (ip), vehicle: saline 95 % of control | dose: 150.0 mg/kg/injection, schedule: Q04DX003 (ip), vehicle: saline 100 % of control | dose: 300.0 mg/kg/injection, schedule: Q04DX003 (ip), vehicle: saline 96 % of control

CN(C)CCCc1c2ccccc2nc2ccc(Cl)cc12
inactive: dose: 12.0 mg/kg/injection, schedule: Q01DX009 (ip), vehicle: saline 98 % of control | dose: 25.0 mg/kg/injection, schedule: Q01DX009 (ip), vehicle: saline 101 % of control

CC(C)(C)c1ccc(/C=[N+](\[O-])C(C)(C)C)c(C(C)(C)C)c1O
inactive: dose: 50.0 mg/kg/injection, schedule: Q04DX002 (ip), vehicle: saline with Tween-80 102 % of control | dose: 100.0 mg/kg/injection, schedule: Q04DX002 (ip), vehicle: saline with Tween-80 98 % of control | dose: 200.0 mg/kg/injection, schedule: Q04DX002 (ip), vehicle: saline with Tween-80 102 % of control | dose: 400.0 mg/kg/injection, schedule: Q04DX002 (ip), vehicle: saline with Tween-80 95 % of control

COCCCNC(=S)C(=S)NCCCOC
inactive: dose: 100.0 mg/kg/injection, schedule: Q04DX002 (ip), vehicle: Klucel (hydroxypropylcellulose) (HPC) 97 % of control | dose: 200.0 mg/kg/injection, schedule: Q04DX002 (ip), vehicle: Klucel (hydroxypropylcellulose) (HPC) 107 % of control

O=C(O)C1C2CC3OC(=O)C1C3C2 (stereo unspecified)
inactive: [3] 93 % of control | dose: 100.0 mg/kg/injection, schedule: Q01DX009 (ip), vehicle: saline 98 % of control | [1] 91 % of control | [4] 97 % of control and 98 % of control | [5] 94 % of control | dose: 200.0 mg/kg/injection, schedule: Q01DX009 (ip), vehicle: saline 87 % of control | [2] 94 % of control | [6] 95 % of control and 100 % of control | [7] 100 % of control | dose: 400.0 mg/kg/injection, schedule: Q01DX009 (ip), vehicle: saline 87 % of control | dose: 400.0 mg/kg/injection, schedule: Q04DX003 (ip), vehicle: saline with Tween-80 104 % of control | [8] 98 % of control and 115 % of control

O=C(O)c1cccc(-c2ccccc2)c1
inactive: dose: 25.0 mg/kg/injection, schedule: Q04DX003 (ip), vehicle: saline with Tween-80 94 % of control | dose: 50.0 mg/kg/injection, schedule: Q04DX003 (ip), vehicle: saline with Tween-80 93 % of control | [1] 104 % of control | [4] 101 % of control | [2] 94 % of control and 100 % of control | [6] 106 % of control | [8] 108 % of control

COC(=O)c1cccc2c1-c1ccccc1C(Br)C2Br (stereo unspecified)
inactive: [3] 111 % of control | [4] 96 % of control | [5] 95 % of control | [6] 92 % of control | [7] 97 % of control | [8] 94 % of control

Cc1c2cccc(Sc3ccccc3)c2c2c3c(cccc13)[S+](c1ccccc1)C2 (stereo unspecified)
inactive: dose: 1.56 mg/kg/injection, schedule: Q01DX009 (ip), vehicle: saline 104 % of control | dose: 3.12 mg/kg/injection, schedule: Q01DX009 (ip), vehicle: saline 101 % of control | dose: 6.25 mg/kg/injection, schedule: Q01DX009 (ip), vehicle: saline 105 % of control | dose: 12.5 mg/kg/injection, schedule: Q01DX001 (ip), vehicle: saline with Tween-80 97 % of control | dose: 12.5 mg/kg/injection, schedule: Q01DX001 (ip), vehicle: saline 100 % of control | dose: 12.5 mg/kg/injection, schedule: Q01DX009 (ip), vehicle: saline 91 % of control | dose: 25.0 mg/kg/injection, schedule: Q01DX001 (ip), vehicle: saline 93 % of control | dose: 50.0 mg/kg/injection, schedule: Q01DX001 (ip), vehicle: saline with Tween-80 95 % of control | dose: 50.0 mg/kg/injection, schedule: Q01DX001 (ip), vehicle: saline 86 % of control

Cc1cc(Cl)ccc1OCC(=O)Nc1cccc(C(F)(F)F)c1
inactive: dose: 100.0 mg/kg/injection, schedule: Q04DX002 (ip), vehicle: saline 103 % of control | dose: 200.0 mg/kg/injection, schedule: Q04DX002 (ip), vehicle: saline 100 % of control | dose: 400.0 mg/kg/injection, schedule: Q04DX002 (ip), vehicle: saline 92 % of control

COc1ccc([N+](=O)[O-])cc1NC(=O)NCCCl
inactive: dose: 75.0 mg/kg/injection, schedule: Q01DX009 (ip), vehicle: Klucel (hydroxypropylcellulose) (HPC) 108 % of control | [9] 93 % of control | dose: 150.0 mg/kg/injection, schedule: Q01DX009 (ip), vehicle: Klucel (hydroxypropylcellulose) (HPC) 95 % of control | [10] 96 % of control | dose: 300.0 mg/kg/injection, schedule: Q01DX009 (ip), vehicle: Klucel (hydroxypropylcellulose) (HPC) 102 % of control | [11] 98 % of control

O=C(Oc1ccccc1C(=O)O)c1ccccc1O
inactive: dose: 50.0 mg/kg/injection, schedule: Q04DX003 (ip), vehicle: Klucel (hydroxypropylcellulose) (HPC) 90 % of control | [9] 97 % of control and 102 % of control | [10] 114 % of control | [11] 96 % of control

O=C(O)COc1ccc(OCC(=O)O)cc1
inactive: dose: 100.0 mg/kg/injection, schedule: Q01DX009 (ip), vehicle: Klucel (hydroxypropylcellulose) (HPC) 97 % of control | [9] 95 % of control | dose: 200.0 mg/kg/injection, schedule: Q01DX009 (ip), vehicle: Klucel (hydroxypropylcellulose) (HPC) 89 % of control | [10] 95 % of control | dose: 400.0 mg/kg/injection, schedule: Q01DX009 (ip), vehicle: Klucel (hydroxypropylcellulose) (HPC) 89 % of control | [11] 92 % of control

CCCCCCCCCCCCCCCCSCCCCCCCCCCCSCCCCCCCCCCCCCCCC
inactive: dose: 100.0 mg/kg/injection, schedule: Q01DX001 (ip), vehicle: Klucel (hydroxypropylcellulose) (HPC) 89 % of control | dose: 200.0 mg/kg/injection, schedule: Q01DX001 (ip), vehicle: Klucel (hydroxypropylcellulose) (HPC) 94 % of control | dose: 400.0 mg/kg/injection, schedule: Q01DX001 (ip), vehicle: Klucel (hydroxypropylcellulose) (HPC) 102 % of control

NC(N)=N/N=C(/c1ccccc1)c1ccc(O)cc1O
inactive: dose: 15.0 mg/kg/injection, schedule: Q01DX Z (ip), vehicle: saline 101 % of control | dose: 30.0 mg/kg/injection, schedule: Q01DX Z (ip), vehicle: saline 92 % of control | dose: 60.0 mg/kg/injection, schedule: Q01DX Z (ip), vehicle: saline 94 % of control | dose: 120.0 mg/kg/injection, schedule: Q01DX Z (ip), vehicle: saline 92 % of control | dose: 120.0 mg/kg/injection, schedule: Q01DX Z (oral), vehicle: saline 101 % of control | dose: 240.0 mg/kg/injection, schedule: Q01DX Z (ip), vehicle: saline 108 % of control | dose: 240.0 mg/kg/injection, schedule: Q01DX Z (oral), vehicle: saline 102 % of control | dose: 480.0 mg/kg/injection, schedule: Q01DX Z (oral), vehicle: saline 101 % of control | dose: 960.0 mg/kg/injection, schedule: Q01DX Z (oral), vehicle: saline 98 % of control
